In US7462600B2, “Macrolides” (Pfizer Inc, priority 2004, dated 2008):
Converted amounts (≈) assume the structure as drawn. Where two headings read alike, the source gives them in different places.

How the values were obtained:
Assay type in all cases: cell-based
[1] = system: Streptococcus pyogenes 1079; assay: MIC, microtiter broth dilution (NCCLS M100-S14), S. pyogenes 1079 (ermB)
Method in brief: (§1)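 Compounds were first dissolved in DMSO (40 mg/ml stock), then tested by broth dilution in microtiter trays. MICs were interpreted using the 14th Informational Supplement (M100-S14) criteria.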

[2] = system: Streptococcus pneumoniae 1016; assay: MIC, microtiter broth dilution (NCCLS M100-S14), S. pneumoniae 1016 (susceptible)
Method in brief: as §1

[3] = system: Streptococcus pneumoniae 1095; details: microtiter broth dilution
Method in brief: as §1

[4] = system: Streptococcus pneumoniae 1175; details: microtiter broth dilution
Method in brief: as §1

[5] = system: Haemophilus influenzae 1218; assay: MIC, microtiter broth dilution (NCCLS M100-S14), H. influenzae 1218 (susceptible)
Method in brief: as §1

[6] = S. pneumoniae 1016 (susceptible)
[7] = H. influenzae 1218 (susceptible)

| Structure (SMILES) | MIC S. pyogenes 1079 ([1]; Streptococcus pyogenes 1079) | MIC S. pneumo. 1016 ([2]; Streptococcus pneumoniae 1016) | MIC S. pneumo. 1095 ([3]; Streptococcus pneumoniae 1095) | MIC S. pneumo. 1175 ([4]; Streptococcus pneumoniae 1175) | MIC H. influenzae 1218 ([5]; Haemophilus influenzae 1218) | MIC S. pyogenes 1079 ([1]; S. pyogenes 1079 (ermB)) | MIC S. pneumo. 1016 [2, 6] | MIC S. pneumo. 1095 ([3]; S. pneumoniae 1095 (ermB)) | MIC S. pneumo. 1175 ([4]; S. pneumoniae 1175 (mefA)) | MIC H. influenzae 1218 [5, 7] |
| --- | --- | --- | --- | --- | --- | --- | --- | --- | --- | --- |
| CCC1OC(=O)C(C)(F)C(=O)C(C)C(OC2OC(C)CC(N(C)C)C2O)C(C)(OC)CC(C)C(=O)C(C)C2N(C3CN(S(=O)(=O)c4cccc5nccnc45)C3)C(=O)OC12C (stereo not shown) [Example 3.98, 3-descladinosyl-11,12-dideoxy-2-fluoro-6-O-methyl-3-oxo-12,11-(oxycarbonyl-(1-(quinoxaline-5-sulfonyl)-azetidin-3-yl)-imino)-erythromycin A] | 0.25 µg/mL (≈ 0.285 µM) | <0.063 µg/mL | <0.063 µg/mL | <0.063 µg/mL | 0.25 µg/mL (≈ 0.285 µM) | – | – | – | – | – |
| CC[C@H]1OC(=O)[C@H](C)C(=O)[C@H](C)[C@@H](O[C@@H]2O[C@H](C)C[C@H](N(C)C)[C@H]2O)[C@](C)(OC)C[C@@H](C)C(=O)[C@H](C)[C@H]2N(CC3(C)CN(Cc4nc5ccccc5[nH]4)C3)C(=O)O[C@]12C.O=CO [6.11] | – | – | – | – | – | >64.00 µg/mL | <0.06 µg/mL | 0.25 µg/mL | <0.06 µg/mL | 1 µg/mL |
| CCC1OC(=O)C(C)C(=O)C(C)C(OC2OC(C)CC(N(C)C)C2O)C(C)(OC)CC(C)C(=O)C(C)C2N(CC3(O)CN(C(=O)c4ccc5ncccc5c4)C3)C(=O)OC12C (stereo not shown) [7.05] | – | – | – | – | – | >64.00 µg/mL | <0.06 µg/mL | 2 µg/mL (≈ 2.34 µM) | 1 µg/mL (≈ 1.17 µM) | 1 µg/mL (≈ 1.17 µM) |
| CCC1OC(=O)C(C)C(=O)C(C)C(OC2OC(C)CC(N(C)C)C2O)C(C)(OC)CC(C)C(=O)C(C)C2N(C3CN(Cc4cccc5ncccc45)C3)C(=O)OC12C (stereo not shown) [Example 1.06, 3-descladinosyl-11,12-dideoxy-6-O-methyl-3-oxo-12,11-(oxycarbonyl-(1-((quinolin-5-yl)-methyl)-azetidin-3-yl)-imino)-erythromycin A] | 4 µg/mL (≈ 4.94 µM) | <0.06 µg/mL | <0.06 µg/mL | <0.06 µg/mL | 1 µg/mL (≈ 1.24 µM) | – | – | – | – | – |
| CCC1OC(=O)C(C)C(=O)C(C)C(OC2OC(C)CC(N(C)C)C2O)C(C)(OC)CC(C)C(=O)C(C)C2N(CC3CN(Cc4cccnc4)C3)C(=O)OC12C (stereo not shown) [4.04] | >64.00 µg/mL | <0.06 µg/mL | 16 µg/mL (≈ 20.7 µM) | 0.25 µg/mL (≈ 0.323 µM) | 0.5 µg/mL (≈ 0.647 µM) | – | – | – | – | – |
| CCC1OC(=O)C(C)C(=O)C(C)C(OC2OC(C)CC(N(C)C)C2O)C(C)(OC)CC(C)C(=O)C(C)C2N(CC3CCCN3C(=O)c3ccc4cnccc4n3)C(=O)OC12C (stereo not shown) [10.49] | – | – | – | – | – | >64.00 µg/mL | <0.06 µg/mL | 2 µg/mL (≈ 2.35 µM) | 2 µg/mL (≈ 2.35 µM) | 8 µg/mL (≈ 9.39 µM) |
| CCC1OC(=O)C(C)C(=O)C(C)C(OC2OC(C)CC(N(C)C)C2O)C(C)(OC)CC(C)C(=O)C(C)C2N(C3CCN(Cc4cnc5ccccc5c4)C3)C(=O)OC12C (stereo not shown) [Example 9.04, (quinolin-3-yl)methyl] | – | – | – | – | – | 32 µg/mL (≈ 38.9 µM) | <0.06 µg/mL | <0.06 µg/mL | <0.06 µg/mL | 0.5 µg/mL (≈ 0.608 µM) |
| CCC1OC(=O)C(C)C(=O)C(C)C(OC2OC(C)CC(N(C)C)C2O)C(C)(OC)CC(C)C(=O)C(C)C2N(CC3CN(Cc4ccnc5ccccc45)C3)C(=O)OC12C (stereo not shown) [4.13] | 32 µg/mL (≈ 38.9 µM) | <0.06 µg/mL | 0.5 µg/mL (≈ 0.608 µM) | <0.06 µg/mL | 1 µg/mL (≈ 1.22 µM) | – | – | – | – | – |
| CCC1OC(=O)C(C)C(=O)C(C)C(OC2OC(C)CC(N(C)C)C2O)C(C)(OC)CC(C)C(=O)C(C)C2N(CC3CCCN3C(=O)c3cccc4ncccc34)C(=O)OC12C [Example 12.11, 3-descladinosyl-11,12-dideoxy-6-O-methyl-3-oxo-12,11-(oxycarbonyl-((1-(quinoline-5-carbonyl)-(S)pyrrolidin-2-yl)-methyl)-imino)-erythromycin A] | – | – | – | – | – | >64.00 µg/mL | <0.06 µg/mL | 0.5 µg/mL (≈ 0.588 µM) | 1 µg/mL (≈ 1.18 µM) | 8 µg/mL (≈ 9.4 µM) |
| CCC1OC(=O)C(C)C(=O)C(C)C(OC2OC(C)CC(N(C)C)C2O)C(C)(OC)CC(C)C(=O)C(C)C2N(CC3CN(Cc4c[nH]c5ccccc45)C3)C(=O)OC12C (stereo not shown) [4.11] | 64 µg/mL (≈ 78.9 µM) | <0.06 µg/mL | 4 µg/mL (≈ 4.93 µM) | 2 µg/mL (≈ 2.47 µM) | 1 µg/mL (≈ 1.23 µM) | – | – | – | – | – |
| CC[C@H]1OC(=O)[C@H](C)C(=O)[C@H](C)[C@@H](O[C@@H]2O[C@H](C)C[C@H](N(C)C)[C@H]2O)[C@](C)(OC)C[C@@H](C)C(=O)[C@H](C)[C@H]2N(CC3(O)CN(Cc4nc(C)[nH]c4C)C3)C(=O)O[C@]12C [7.07] | – | – | – | – | – | >64.00 µg/mL | 0.12 µg/mL (≈ 0.149 µM) | 8 µg/mL (≈ 9.93 µM) | 4 µg/mL (≈ 4.96 µM) | 16 µg/mL (≈ 19.9 µM) |
| CCOc1ccc(S(=O)(=O)N2CC(N3C(=O)OC4(C)C(CC)OC(=O)C(C)C(=O)C(C)C(OC5OC(C)CC(N(C)C)C5O)C(C)(OC)CC(C)C(=O)C(C)C34)C2)cc1C#N (stereo not shown) [Example 3.99, 3-descladinosyl-11,12-dideoxy-6-O-methyl-3-oxo-12,11-(oxycarbonyl-(1-(3-cyano-4-ethoxybenzene-1-sulfonyl)-azetidin-3-yl)-imino)-erythromycin A] | 0.25 µg/mL (≈ 0.285 µM) | <0.063 µg/mL | <0.063 µg/mL | <0.063 µg/mL | 1.41 µg/mL (≈ 1.61 µM) | – | – | – | – | – |
| CCc1noc(-c2cccc(CN3CC(N4C(=O)OC5(C)C(CC)OC(=O)C(C)C(=O)C(C)C(OC6OC(C)CC(N(C)C)C6O)C(C)(OC)CC(C)C(=O)C(C)C45)C3)c2)n1 (stereo not shown) [Example 1.44, 3-(3-ethyl-[1,2,4]oxadiazol-5-yl)benzyl] | >64.00 µg/mL | <0.06 µg/mL | <0.06 µg/mL | 0.5 µg/mL (≈ 0.585 µM) | 16 µg/mL (≈ 18.7 µM) | – | – | – | – | – |
| CCC1OC(=O)C(C)C(=O)C(C)C(OC2OC(C)CC(N(C)C)C2O)C(C)(OC)CC(C)C(=O)C(C)C2N(C3CN(S(=O)(=O)c4cnc5ncccn45)C3)C(=O)OC12C (stereo not shown) [Example 3.17, 3-descladinosyl-11,12-dideoxy-6-O-methyl-3-oxo-12,11-(oxycarbonyl-(1-(imidazo[1,2-a]pyrimidine-3-sulfonyl)-azetidin-3-yl)-imino)-erythromycin A] | 4 µg/mL (≈ 4.71 µM) | <0.06 µg/mL | <0.06 µg/mL | 0.12 µg/mL (≈ 0.141 µM) | 0.5 µg/mL (≈ 0.589 µM) | – | – | – | – | – |
| CCC1OC(=O)C(C)C(=O)C(C)C(OC2OC(C)CC(N(C)C)C2O)C(C)(OC)CC(C)C(=O)C(C)C2N(C3CN(Cc4ccnc5cccnc45)C3)C(=O)OC12C (stereo not shown) [Example 1.26, 3-descladinosyl-11,12-dideoxy-6-O-methyl-3-oxo-12,11-(oxycarbonyl-(1-((1,5-naphthyridin4-yl)-methyl)-azetidin-3-yl)-imino)-erythromycin A] | 1 µg/mL (≈ 1.23 µM) | <0.06 µg/mL | <0.06 µg/mL | <0.06 µg/mL | 0.38 µg/mL (≈ 0.469 µM) | – | – | – | – | – |
| CCC1OC(=O)C(C)C(=O)C(C)C(OC2OC(C)CC(N(C)C)C2O)C(C)(OC)CC(C)C(=O)C(C)C2N(CC3CCN(Cc4c[nH]c5ncccc45)C3)C(=O)OC12C (stereo not shown) [13.01] | – | – | – | – | – | >64.00 µg/mL | <0.06 µg/mL | 0.25 µg/mL (≈ 0.303 µM) | 1 µg/mL (≈ 1.21 µM) | 1 µg/mL (≈ 1.21 µM) |
| CCC1OC(=O)C(C)C(=O)C(C)C(OC2OC(C)CC(N(C)C)C2O)C(C)(OC)CC(C)C(=O)C(C)C2N(C3CN(S(=O)(=O)c4cccc(-c5cnco5)c4)C3)C(=O)OC12C (stereo not shown) [Example 3.35, 3-descladinosyl-11,12-dideoxy-6-O-methyl-3-oxo-12,11-(oxycarbonyl-(1-(3-(oxazol-5-yl)benzenesulfonyl)-azetidin-3-yl)-imino)-erythromycin A] | 1 µg/mL (≈ 1.14 µM) | <0.06 µg/mL | <0.06 µg/mL | <0.06 µg/mL | 0.12 µg/mL (≈ 0.137 µM) | – | – | – | – | – |
| CCC1OC(=O)C(C)C(=O)C(C)C(OC2OC(C)CC(N(C)C)C2O)C(C)(OC)CC(C)C(=O)C(C)C2N(CC3CN(C(=O)c4cc5ccccc5cn4)C3)C(=O)OC12C.O=CO (stereo not shown) [4.39] | >64.00 µg/mL | <0.06 µg/mL | 8 µg/mL | <0.06 µg/mL | 4 µg/mL | – | – | – | – | – |
| CCC1OC(=O)C(C)C(=O)C(C)C(OC2OC(C)CC(N(C)C)C2O)C(C)(OC)CC(C)C(=O)C(C)C2N(CC3CCN(Cc4cccc(OC)n4)C3)C(=O)OC12C (stereo not shown) [11.08] | – | – | – | – | – | >64.00 µg/mL | <0.06 µg/mL | <0.06 µg/mL | 0.25 µg/mL (≈ 0.306 µM) | 0.5 µg/mL (≈ 0.612 µM) |
| CCC1OC(=O)C(C)C(=O)C(C)C(OC2OC(C)CC(N(C)C)C2O)C(C)(OC)CC(C)C(=O)C(C)C2N(CC3CCN(Cc4cnn(-c5cccnc5)c4)C3)C(=O)OC12C (stereo not shown) [11.15] | – | – | – | – | – | 64 µg/mL (≈ 75 µM) | <0.06 µg/mL | <0.06 µg/mL | 0.5 µg/mL (≈ 0.586 µM) | 2 µg/mL (≈ 2.34 µM) |
